Molecular target: T1, BT1622^3S-Gal/GalNAc (Bacteroides thetaiotaomicron, UniProt Q8A7A3)
T1 sequence (Q8A7A3 21-500): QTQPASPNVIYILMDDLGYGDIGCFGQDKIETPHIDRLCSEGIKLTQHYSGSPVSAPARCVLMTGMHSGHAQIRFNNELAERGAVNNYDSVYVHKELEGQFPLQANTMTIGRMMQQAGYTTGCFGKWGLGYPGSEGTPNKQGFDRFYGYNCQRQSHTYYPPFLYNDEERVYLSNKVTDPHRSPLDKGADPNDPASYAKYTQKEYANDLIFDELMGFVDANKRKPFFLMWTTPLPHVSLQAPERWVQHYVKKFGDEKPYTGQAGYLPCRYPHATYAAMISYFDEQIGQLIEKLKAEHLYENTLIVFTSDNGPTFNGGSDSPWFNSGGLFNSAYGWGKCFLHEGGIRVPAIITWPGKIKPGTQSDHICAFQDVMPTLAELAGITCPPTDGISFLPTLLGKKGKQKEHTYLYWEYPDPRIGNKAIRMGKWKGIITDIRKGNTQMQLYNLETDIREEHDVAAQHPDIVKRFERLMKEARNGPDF
Assay: X-ray crystallography
Type: binding
Details: active site; Ca2+; inactive Ser form; 100 mM ligand

SMILES: CC(=O)N[C@H]1C(O)O[C@H](CO)[C@H](O)[C@@H]1O (stereo partly shown) [GalNAc]
- X-ray crystallography: BT1622^3S-Gal/GalNAc in complex with GalNAc

From PMC9128668 (Nature, 2021)
